Results published in US5674467A, “Meso-tetraphenylporphyrin complex compounds, process for their production and pharmaceutical agents containing the latter” (Institut fur Diagnostikforschung GmbH, priority 1993, dated 1997).
One block for each compound: values may come before it.

Assays:
[1] = Relaxivity on relaxometer (minispec pc120; 20 MHz; 40° C.); type: physicochemical; conditions: dist. water, pH 7.4, 20 MHz, 0-1 mmol/l
Experimental: (§1) Determination of Compatibility and Relaxivity of the Compounds According to the Invention
To determine the relaxivity, the relaxation times of the substances were measured in 4 different concentrations (0-1 mmol/l; dissolved in dist. water; pH 7.4) on a relaxometer (minispec pc120; 20 MHz; 40° C.). The calculation was performed from:
Δ(1/T1,2 -1/T1,2 blank value)/Δconc.=R1,2

[2] = Compatibility in mice after i.v. administration, 7-day observation; conditions: mouse, in vivo, iv, 7 days observation, > if all animals tolerated the dose, < if all died
Experimental: as §1
The compatibility was examined preliminarily in mice (NMRI, Schering SPF, female, about 25 g). 0.5 mmol/kg of the substance in each case was administered intravenously to a mouse. The animal died, the dose was halved and correspondingly moved, otherwise the corresponding dose was administered to 2 additional mice. The period of observation was 7 days. The compatibility is indicated with > if all animals tolerated the corresponding dose, with < if all died.

lymph nodes (iliacal) = assay: MR-imaging of VX-2 tumor-bearing rabbits: lymph nodes (iliacal); type: in vivo, rabbit; conditions: 0.1 mmol/kg i.v.
Source text: (§2) MR-Imaging Experiment of Tumor-bearing (VX-2 Carcinoma) Rabbits
(§3) Siemens magnetom® (1.5 tesla; 64 MHz), T1 -accentuated spin-echo technique: TR : 350 ms, TE : 15 ms. slice orientation: coronary, slice thickness: 3 mm, number of averages: 4 per layer, field of view: 150 mm, matrix: 256^2, 4-6 layers, 1 echo per imaging sequence.
(§4) Hare rabbit, Wulf, female,=4 kg of body weight (KGW) [n=3].
(§5) Carcinoma (VX-2), implanted intramuscularly about 3 weeks before the beginning of the test.
(§6) 0.05 and 0.1 mmol/kg of body weight i.v.

lymph node metastasis = assay: MR-imaging of VX-2 tumor-bearing rabbits: lymph node metastasis; type: in vivo, rabbit; conditions: 0.1 mmol/kg i.v.
Source text: as §2, §3, §4, §5, §6

muscle = assay: MR-imaging of VX-2 tumor-bearing rabbits: muscle; type: in vivo, rabbit; conditions: 0.1 mmol/kg i.v.
Source text: as §2, §3, §4, §5, §6

VX-2 carcinoma = assay: MR-imaging of VX-2 tumor-bearing rabbits: VX-2 carcinoma; type: in vivo, rabbit; conditions: 0.1 mmol/kg i.v.
Source text: as §2, §3, §4, §5, §6

[3] = tested on: implanted tumor and lymph nodes; assay: MR-imaging of VX-2 tumor-bearing rabbits: implanted tumor and lymph nodes; type: in vivo, rabbit; conditions: 0.1 mmol/kg i.v.
Source text: as §2, §3, §4, §5, §6

[4] = 0 min p.i. (precontrast set to 1)

Compound: O=C(O)COc1cccc(-c2c3nc(c(-c4cccc(OCC(=O)O)c4)c4ccc([nH]4)c(-c4cccc(OCC(=O)O)c4)c4nc(c(-c5cccc(OCC(=O)O)c5)c5ccc2[nH]5)C=C4)C=C3)c1.[Cl-].[Cl-].[Cl-].[Mn+3] [Example 2c, Manganese(III)-{5,10,15,20-tetrakis-[3-(carboxymethoxy)-phenyl]-porphyrin}-chloride]
- Relaxivity R1 [1]: 13 I/mmol/s
- MTD at 168 h [2]: > 500 µmol/kg

- Relaxivity R1 [1]: 8.6 I/mmol/s
Compound: Manganese (III){5,10,15,20tetrakis-{[4carboxylic acid(2,3-dihydroxy-1-hydroxymethylpropyl)-amidephenylporphyrinacetate [Example 2 from EP 0336 879 A1]

Compound: Gd-DTPA
- Relative signal intensity, lymph nodes (iliacal) (lymph nodes (iliacal); [4]): 1.00
- Relative signal intensity, lymph nodes (iliacal) (lymph nodes (iliacal); 2 min p.i.): 1.50
- Relative signal intensity, lymph nodes (iliacal) (lymph nodes (iliacal); 8 min p.i.): 1.32
- Relative signal intensity, lymph nodes (iliacal) (lymph nodes (iliacal); 17 min p.i.): 1.20
- Relative signal intensity, lymph nodes (iliacal) (lymph nodes (iliacal); 42 min p.i.): 1.24
- Relative signal intensity, lymph nodes (iliacal) (lymph nodes (iliacal); 52 min p.i.): 1.17
- Relative signal intensity, lymph nodes (iliacal) (lymph nodes (iliacal); 69 min p.i.): 1.11
- Relative signal intensity, lymph nodes (iliacal) (lymph nodes (iliacal); 24 hours p.i.): 1.14
- Relative signal intensity, lymph node metastasis (lymph node metastasis; [4]): 1.00
- Relative signal intensity, lymph node metastasis (lymph node metastasis; 2 min p.i.): 1.61
- Relative signal intensity, lymph node metastasis (lymph node metastasis; 8 min p.i.): 1.44
- Relative signal intensity, lymph node metastasis (lymph node metastasis; 17 min p.i.): 1.36
- Relative signal intensity, lymph node metastasis (lymph node metastasis; 42 min p.i.): 1.29
- Relative signal intensity, lymph node metastasis (lymph node metastasis; 52 min p.i.): 1.20
- Relative signal intensity, lymph node metastasis (lymph node metastasis; 69 min p.i.): 1.25
- Relative signal intensity, lymph node metastasis (lymph node metastasis; 24 hours p.i.): 0.97
- Relative signal intensity, muscle (muscle; [4]): 1.00
- Relative signal intensity, muscle (muscle; 2 min p.i.): 1.20
- Relative signal intensity, muscle (muscle; 8 min p.i.): 1.11
- Relative signal intensity, muscle (muscle; 17 min p.i.): 1.10
- Relative signal intensity, muscle (muscle; 42 min p.i.): 1.07
- Relative signal intensity, muscle (muscle; 52 min p.i.): 1.02
- Relative signal intensity, muscle (muscle; 69 min p.i.): 1.08
- Relative signal intensity, muscle (muscle; 24 hours p.i.): 1.04
- Relative signal intensity, VX-2 carcinoma (VX-2 carcinoma; [4]): 1.00
- Relative signal intensity, VX-2 carcinoma (VX-2 carcinoma; 2 min p.i.): 1.50
- Relative signal intensity, VX-2 carcinoma (VX-2 carcinoma; 8 min p.i.): 1.50
- Relative signal intensity, VX-2 carcinoma (VX-2 carcinoma; 17 min p.i.): 1.48
- Relative signal intensity, VX-2 carcinoma (VX-2 carcinoma; 42 min p.i.): 1.47
- Relative signal intensity, VX-2 carcinoma (VX-2 carcinoma; 52 min p.i.): 1.42
- Relative signal intensity, VX-2 carcinoma (VX-2 carcinoma; 69 min p.i.): 1.40
- Relative signal intensity, VX-2 carcinoma (VX-2 carcinoma; 24 hours p.i.): 1.11
- enhancement of tumors or metastases after about 60-90 minutes [3]: almost no enhancement of tumors or metastases was observed any longer
- signal rise in implanted tumor and lymph nodes ([3]; lymph nodes on tumor-bearing and tumor-free side (iliacal and popliteal)): only in a brief, small signal rise
- time until approximately the starting intensity was reached again ([3]; virtually all examined tissues, within about): 60 to 90 min

Compound: CC(=O)[O-].CC(=O)[O-].CC(=O)[O-].CCOC(=O)COc1ccc(-c2c3nc(c(-c4ccc(OCC(=O)OCC)c(OCC(=O)OCC)c4)c4ccc([nH]4)c(-c4ccc(OCC(=O)OCC)c(OCC(=O)OCC)c4)c4nc(c(-c5ccc(OCC(=O)OCC)c(OCC(=O)OCC)c5)c5ccc2[nH]5)C=C4)C=C3)cc1OCC(=O)OCC.[Mn+3] [Example 4c, Manganese(III)-{5,10,15,20-tetrakis-[3,4-bis-(ethoxycarbonylmethoxy)-phenyl]-porphyrin}-acetate]
- Relaxivity R1 [1]: 11.6 I/mmol/s
- MTD at 168 h [2]: ≥ 500 µmol/kg

Compound: CC(=O)[O-].O=C([O-])c1cccc(-c2c3nc(c(-c4cccc(C(=O)[O-])c4)c4ccc([nH]4)c(-c4cccc(C(=O)[O-])c4)c4nc(c(-c5cccc(C(=O)[O-])c5)c5ccc2[nH]5)C=C4)C=C3)c1.[Mn+3] [Example 4 from EP 0336 879 A1]
- Relaxivity R1 [1]: 8.8 I/mmol/s

Compound: CC(=O)[O-].COc1ccc(-c2c3nc(c(-c4ccc(OC)c(S(=O)(=O)[O-])c4)c4ccc([nH]4)c(-c4ccc(OC)c(S(=O)(=O)[O-])c4)c4nc(c(-c5ccc(OC)c(S(=O)(=O)[O-])c5)c5ccc2[nH]5)C=C4)C=C3)cc1S(=O)(=O)[O-].[Mn+3].[Na+].[Na+].[Na+].[Na+] [Example 17 from EP 0336 879 A1]
- Relaxivity R1 [1]: 9.2 I/mmol/s
